The text below walks through data of US20090281111A1 (Fabre-Kramer Pharmaceuticals, Inc., priority 2008, published 2009).

Data set [1] deals with T1, Alpha 2C receptor (Homo sapiens, UniProt P18825).
T1 sequence (P18825 1-462): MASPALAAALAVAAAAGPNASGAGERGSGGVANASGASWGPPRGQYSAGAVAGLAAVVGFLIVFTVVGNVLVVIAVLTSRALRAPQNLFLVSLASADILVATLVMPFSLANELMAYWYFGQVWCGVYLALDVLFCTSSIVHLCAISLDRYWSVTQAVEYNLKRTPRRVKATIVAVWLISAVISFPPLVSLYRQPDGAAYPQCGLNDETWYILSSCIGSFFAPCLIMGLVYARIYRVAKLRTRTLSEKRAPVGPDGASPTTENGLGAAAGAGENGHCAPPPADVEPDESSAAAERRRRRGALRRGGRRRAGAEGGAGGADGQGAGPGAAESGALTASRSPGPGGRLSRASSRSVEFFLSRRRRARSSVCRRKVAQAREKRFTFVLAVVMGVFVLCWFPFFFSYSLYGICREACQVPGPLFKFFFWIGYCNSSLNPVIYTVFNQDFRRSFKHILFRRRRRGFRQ
The note with it: cited from earlier work.

The target of data set [2] is T2, 5-HT1A receptor (Homo sapiens, UniProt P08908).
T2 sequence (P08908 1-422): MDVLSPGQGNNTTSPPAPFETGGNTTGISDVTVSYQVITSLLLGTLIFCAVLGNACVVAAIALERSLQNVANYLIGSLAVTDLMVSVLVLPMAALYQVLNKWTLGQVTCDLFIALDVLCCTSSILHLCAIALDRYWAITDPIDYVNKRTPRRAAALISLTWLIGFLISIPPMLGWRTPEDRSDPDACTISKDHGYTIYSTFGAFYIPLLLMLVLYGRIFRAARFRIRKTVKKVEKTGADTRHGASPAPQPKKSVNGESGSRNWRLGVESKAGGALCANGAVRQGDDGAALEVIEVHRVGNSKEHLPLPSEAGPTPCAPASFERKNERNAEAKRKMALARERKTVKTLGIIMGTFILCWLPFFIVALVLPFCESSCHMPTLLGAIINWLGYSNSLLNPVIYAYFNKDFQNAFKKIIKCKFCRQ
Conditions: cited from earlier work.

For data set [3], the system named is alpha-adrenergic receptors. The note with it: Alpha 2A, Alpha 2B, Alpha 2C tested; cited from earlier work.
In data set [4] the test system is dopaminergic receptors. Conditions: cited from earlier work.
Data set [5] in a line: 3-OH gepirone concentrations in plasma after administration of gepirone. Conditions: human subjects administered a dose of gepirone, FIG. 2. It is filed as in vivo. Here is the method: “Time (H)” represents time after administration.
Each sample corresponds to a 0.5 ml plasma sample, extracted with 6 ml of (2:1) (v/v) hexane:chloroform for 1 hour. After separation by centrifuge, the organic layer is transferred to a 10 ml conical tube and 90 ul of 1% formic acid is added. The tube is vortexed for 10 minutes and centrifuged for 5 minutes. About 80 ul of the formic acid layer is transferred into injection vials for HPLC/MS analysis.

For data set [6], the target named is 5-HT7 receptor (Homo sapiens, UniProt P34969). Conditions: compared with 3-OH gepirone; cited from earlier work.
For data set [7] the following is noted: cited from earlier work; for half-life: in vivo.
Data set [8] deals with 5-HT2A receptor (Homo sapiens, UniProt P28223). Conditions: compared with 3-OH gepirone; cited from earlier work.
Chain of 5-HT2A receptor (P28223 whole entry): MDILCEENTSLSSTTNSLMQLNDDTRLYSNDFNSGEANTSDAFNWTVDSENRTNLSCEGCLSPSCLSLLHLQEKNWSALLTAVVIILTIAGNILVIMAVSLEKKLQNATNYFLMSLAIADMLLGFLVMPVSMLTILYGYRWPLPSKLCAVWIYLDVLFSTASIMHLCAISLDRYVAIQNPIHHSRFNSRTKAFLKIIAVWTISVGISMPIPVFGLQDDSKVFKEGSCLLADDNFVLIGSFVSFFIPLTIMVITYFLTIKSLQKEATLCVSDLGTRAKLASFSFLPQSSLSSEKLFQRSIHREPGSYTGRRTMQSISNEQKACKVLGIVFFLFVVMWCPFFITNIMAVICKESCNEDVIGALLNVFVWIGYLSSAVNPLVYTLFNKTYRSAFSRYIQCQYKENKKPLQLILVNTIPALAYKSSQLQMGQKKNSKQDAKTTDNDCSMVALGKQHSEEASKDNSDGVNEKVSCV

Chain of 5-HT7 receptor (P34969 whole entry): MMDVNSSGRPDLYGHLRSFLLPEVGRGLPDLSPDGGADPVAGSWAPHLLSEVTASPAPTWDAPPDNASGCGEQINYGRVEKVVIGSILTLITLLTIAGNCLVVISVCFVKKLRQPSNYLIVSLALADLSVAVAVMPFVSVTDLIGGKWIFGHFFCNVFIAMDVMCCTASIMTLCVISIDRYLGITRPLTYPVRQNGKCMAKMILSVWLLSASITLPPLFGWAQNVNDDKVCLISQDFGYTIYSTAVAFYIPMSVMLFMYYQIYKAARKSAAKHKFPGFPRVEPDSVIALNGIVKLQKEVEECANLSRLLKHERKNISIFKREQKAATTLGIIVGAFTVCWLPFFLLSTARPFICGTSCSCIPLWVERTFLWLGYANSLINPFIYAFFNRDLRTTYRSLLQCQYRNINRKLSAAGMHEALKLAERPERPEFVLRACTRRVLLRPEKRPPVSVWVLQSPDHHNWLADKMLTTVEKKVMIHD

On to `CC1(C)CC(=O)N(CCCCN2CCN(c3ncccn3)CC2)C(=O)C1O` (centres unmarked) [3-OH gepirone, 4,4,-dimethyl-3-hydroxy-1-[4-[4-(2-pyrimidinyl)-1-piperazinyl]butyl]-2,6-piperidinedione], for which, in data set [1], the “binding at the Alpha 2C receptor” value is listed as “weak binding”. For the same molecule, the “selectivity among the serotonergic receptor subtypes” value in data set [2] is reported as “highly selective for the 5-HT1A receptor”. Besides, the “affinity at alpha-adrenergic receptors” value in data set [3] was “did not display significant affinity”. In addition, in data set [4], the dopaminergic binding result was “insignificant dopaminergic binding”. Further, the “plasma levels of 3-OH gepirone over time” value in data set [5] is “available quickly and persists in the plasma for extended periods of time”.

`O=C1CC2(CCCC2)CC(=O)N1CCCCN1CCN(c2ncccn2)CC1` [buspirone]: in data set [6], the “interaction with the 5-HT7 receptor” value was “much more specifically and at lower concentrations than does 3-OH gepirone”. Moreover, the half-life result in data set [7] is given as “very short”.

As to `CC1(C)CC(=O)N(CCCCN2CCN(c3ncccn3)CC2)C(=O)C1` [gepirone, 4-dimethyl-1-[4-[4-(2-pyrimidinyl)-1-piperazinyl]butyl]-2,6-piperidinedione], the “interaction with the 5-HT7 receptor” value in data set [6] is “much more specifically and at lower concentrations than does 3-OH gepirone”. In data set [7] (delivered orally), the bioavailability is listed as 14-18%. Besides, in data set [7], the half-life result was “very short”. In addition, in data set [8], the “interaction with the 5-HT2A receptor” value was “much more specifically and at lower concentrations than does 3-OH gepirone”.
